Laboratory results reported in ChEMBL document CHEMBL3507680, “University of Dundee, Gates Library screen for HepG2 cell viability”.

Assay: Human HepG2 cell viability assay in 384 well format
Assay type: toxicity, cell-based
Parameters: dose 125 nL, time 70.5 hour; concentration not given beside the values
Settings: HepG2 cells, read-out: Inhibition

| SMILES | cytotoxicity at 70.5 h [%] |
| --- | --- |
| CC(C)=CCN1CCN(Cc2nc3ccccc3[nH]2)[C@H]2CS(=O)(=O)C[C@H]21 | -8.69 |
| O=C(c1cc(=O)[nH][nH]1)N1CCCC2(CCC(=O)N(C3CCCC3)C2)C1 (stereo unspecified) | -5.45 |
| CC(c1ccccc1)N(C)C(=O)CN1CCCc2cc(F)cc(F)c21 (stereo unspecified) | 12.8 |
| CN(Cc1ccccc1)CC(C)(C)NC(=O)c1cnns1 | -0.0616 |
| CCOC(C)c1nc(Cn2cc(C(=O)NC)ccc2=O)cs1 (stereo unspecified) | -4.29 |
| Cc1ccc2nc(C)cc(NCCNS(=O)(=O)c3cn(C)nc3C)c2c1 | 0.534 |
| CNC(=O)CN1CCC(CN(C)Cc2ccncc2Cl)CC1 | -3.24 |
| Cc1noc(C)c1CN1CCn2cc(CN3CCCC3)nc2C1 | -4.15 |
| Cn1cc(N2CCC(NC(=O)c3c(F)cccc3Cl)C2=O)cn1 (stereo unspecified) | -3.25 |
| Cc1cc(C)n(CCC(=O)N2CCCCC2c2nccs2)n1 (stereo unspecified) | 11.9 |
| O=C(CCC1CCCC1)NCc1nnc2ccccn12 | -10.1 |
| Cc1nc(N(C)Cc2cccc(O)c2)nc2cc(S(C)(=O)=O)ccc12 | -7.8 |
| COC(=O)NCC(=O)N1CCC(c2cc3ccccc3[nH]2)CC1 | -8.79 |
| O=C(NCCn1ccnc1)N1CCCC1c1ccc2c(c1)OCCO2 (stereo unspecified) | -4.48 |
| CCCN1CCN(C(=O)c2ccn(COc3ccc(F)cc3)n2)CC1 | -3.36 |
| COCc1nc(C(=O)OCC2CCN(c3ccccc3)C2)cs1 (stereo unspecified) | -88.7 |
| CC(C)CC(=O)N1Cc2ccccc2CC1C(=O)Nc1nccs1 (stereo unspecified) | -8.5 |
| Cn1ccnc1C(O)c1ccccc1N1CCN(Cc2ccsc2)CC1 (stereo unspecified) | -5.94 |
| Cc1nc2c(Nc3ccc(C#N)cc3)nc(N)nc2n1C | -1.73 |
| CC(c1ccc(F)cc1)n1ccnc1-c1cc2n(n1)CCCNC2 (stereo unspecified) | -6.66 |
| Cc1cccc(CN2Cc3ncn(C)c3C(COCC(=O)N(C)C)C2)n1 (stereo unspecified) | -3.93 |

| SMILES | cytotoxicity at 70.5 h [%] |
| --- | --- |
| Cc1cc2cc(C(=O)N3CC[C@H](O)[C@]4(CCCO4)C3)ccc2o1 | -18.1 |
| CC(C)N1CCC2(CCCNC2)C1=O (stereo unspecified) | -14.6 |
| O=c1[nH]c(CN2CCN(CC(F)(F)F)CC2)nc2ccccc12 | -13.3 |
| OC1(CNCCc2csc(-c3ncccn3)n2)CCNC1 (stereo unspecified) | -14.5 |
| Cc1cnc(CNC(=O)N(CCCO)C2CCc3ccccc32)s1 (stereo unspecified) | 0.605 |
| CCN(Cc1ccc(C(C)C)cc1)C(=O)c1csc(CN(C)C)n1 | 7.36 |
| COCC(=O)N1CC[C@@H](N2CCOCC2)[C@@H]1Cc1cccnc1 | -12.2 |
| Cc1noc(C(C)C)c1C(=O)NCCCN1CCCC1 | -6.55 |
| CNC(=O)c1ccccc1-c1ccc(S(C)(=O)=O)cc1 | -4.9 |
| c1cncc(CN2CCc3ncnc(C4CCOC4)c3CC2)c1 (stereo unspecified) | 22.8 |
| O=C(c1ccc2c(c1)OCO2)N1CCC(C(=O)O)(c2ccccc2)CC1 | -11.1 |
| CCn1ccnc1CN1CCN(Cc2ccc(C#N)cc2)CC1 | 28.9 |
| Cc1csc(C(Cc2ccsc2)NC(=O)C2CCN(S(C)(=O)=O)CC2)n1 (stereo unspecified) | -10 |
| CS(=O)(=O)N1Cc2nccn2CC(CNC(=O)c2cccnc2)C1 (stereo unspecified) | -5.69 |
| CC(C)(C)n1ncc2c1NC(=O)CC2c1ccc(C(=O)O)cc1 (stereo unspecified) | -13.3 |
| CCN(CC)C(=O)[C@@H]1C[C@@H](NC(=O)c2ccn(C(C)(C)C)c2)CN1C | -4.81 |
| CC(NC(=O)NCCCNS(C)(=O)=O)c1ccncc1 (stereo unspecified) | 1.41 |
| Cn1nc(CO)c2c1CCN(c1ncnc3c1CCNCC3)C2 | -6.13 |
| Cc1cccc(C(C(=O)N2CC(c3ccncc3)C2)N(C)C)c1 (stereo unspecified) | 12.4 |
| CN1C(=O)CC(C(=O)O)C12CCN(c1ccc3cccc(Cl)c3n1)CC2 (stereo unspecified) | -4.5 |
| O=C(O)c1cc2c(nc1-c1ccsc1)CCN(C(=O)C1CC1)CC2 | -7.32 |

| SMILES | cytotoxicity at 70.5 h [%] |
| --- | --- |
| COCC(O)CN(C)c1ccnc2cc(F)ccc12 (stereo unspecified) | 13.1 |
| COc1ccc2[nH]c(C(=O)NCC3(N)CCCC3)cc2c1 | -7.33 |
| CC(C)C(O)CNC(=O)Nc1cccc(-c2nccs2)c1 (stereo unspecified) | -3.11 |
| CCC(=O)N1CCc2[nH]cnc2C12CCN(C1CCOCC1)CC2 | -4.44 |
| CCOC(=O)N1CCN(c2nc(NC3CC3)c3ccccc3n2)CC1 | 3.06 |
| COc1ccc(N(C(=O)Cc2ccc(C)nc2)C(C)C)cc1F | -5.23 |
| O=C([C@H]1C[C@@H]2CCN(C3CCOCC3)C[C@H]2O1)N1CCCC1 | -4.47 |
| O=C(Nc1cccnc1)[C@H]1CN(Cc2cccs2)C[C@H]2OCC[C@@H]12 | -10.8 |
| CCC(C)N(Cc1sccc1C)C(=O)c1ccc2cccnc2n1 (stereo unspecified) | -11.7 |
| Cc1ccc(-c2ncc(C(=O)N3CCN4CCCCC4C3)c(O)n2)cc1 (stereo unspecified) | -4.08 |
| COc1cccc(N2CCN(Cc3ccc(NC(C)=O)cc3)CC2=O)c1 | 9.59 |
| Cc1ccc(C(=O)NCCn2nc(-n3cncn3)ccc2=O)c(C)c1 | 29.8 |
| CNC(=O)c1ccc2c(c1O)OC(C)(C)C2 | -4.08 |
| CCNC(=O)[C@@H]1C[C@H](N)CN1C(=O)c1c[nH]c2ccccc12 | -0.954 |
| Cc1ccc(N2CCCC3(CCN(C(=O)CC(F)(F)F)C3)C2)nn1 (stereo unspecified) | -10.2 |
| CN(CCc1ccccc1)c1cnn(CC(=O)N2CCOCC2)c(=O)c1 | -7.73 |
| CCN(CC)CCNC(=O)CCc1c(C)nn(-c2ccc(Cl)cc2)c1C | -7.15 |
| O=C(CCNC(=O)c1ccoc1)Nc1cccc(F)c1 | -6.83 |
| Cc1ccc(C(=O)N(C)Cc2csc(C)n2)c(=O)[nH]1 | 1.68 |
| CC(C)OCCCNC(=O)CSc1nnc(OC(C)C)s1 | -4.19 |
| CC(C)c1nc2n(n1)CC(NCc1nnnn1C1CC1)CC2 (stereo unspecified) | -5.21 |

| SMILES | cytotoxicity at 70.5 h [%] |
| --- | --- |
| CCC(=O)N1Cc2nnc(C3CCOCC3)n2C(Cc2c[nH]cn2)C1 (stereo unspecified) | -7.01 |
| COCc1cn(C[C@H]2CC3CCN2C[C@@H]3C(=O)Nc2ccccc2)nn1 (stereo partly specified) | -6.64 |
| COCCc1noc(CN2C(=O)OC[C@@H]2C(C)C)n1 | 2.12 |
| CN(Cc1ccoc1)C(=O)CN1C(=O)OC(C)(C)C1=O | -8.72 |
| COc1cc(OC)c(-n2nnc(C(=O)O)c2C)cc1Cl | 1.66 |
| N#Cc1ccc(CN2CCCN(C(=O)CCn3cncn3)CC2)cc1 | -10.9 |
| CCS(=O)(=O)NC(CCSC)C(=O)Nc1cccc(C)c1C (stereo unspecified) | -83.4 |
| COc1cccc(C(=O)NCC2CCN(C(=O)c3ccoc3)CC2)c1 | -3.78 |
| O=C(NCc1ccccn1)N1CC=C(c2ccccc2)CC1 | -16.2 |
| Cc1cc(C)cc(OCCC(=O)NC2CC(=O)N(C)C2)c1 (stereo unspecified) | -0.646 |
| CCC(=O)NCC(=O)NC(Cc1ccccc1)c1sccc1C (stereo unspecified) | -2.67 |
| Cc1ccc2c(c1)OC(C)CN2C(=O)CCc1cscn1 (stereo unspecified) | 0.46 |
| Cc1cc(O)cc(C2CCCN2C(=O)c2ccn(C)n2)n1 (stereo unspecified) | 10.2 |
| Cc1ccc(CCC(=O)N2CCOCC2)cc1Cl | -6.51 |
| COc1cccc(CN2CCN(Cc3ccc4nonc4c3)CC2=O)c1 | -0.956 |
| CC(C)N(C)Cc1cncc2c1CCN(C(=O)c1ccc[nH]1)C2 | -1.2 |
| COCCNC(=O)NCc1cccc(-n2ccnc2)c1 | -13.7 |
| COCCN1C(=O)CO[C@H]2CN(S(=O)(=O)c3ccccc3)C[C@H]21 | -12.7 |
